The values below come from patent US20260258064A1 (SIRONAX LTD., priority 2023, published 2026).

Molecules are shown by their SMILES.

For this assay, the target named is T1, SARM1 (50-724) (Homo sapiens, UniProt Q6SZW1).
T1 construct: Purified SARM1 (50-724) with a final concentration of 2 nM was pre-incubated with a test compound
T1 sequence (Q6SZW1 50-724): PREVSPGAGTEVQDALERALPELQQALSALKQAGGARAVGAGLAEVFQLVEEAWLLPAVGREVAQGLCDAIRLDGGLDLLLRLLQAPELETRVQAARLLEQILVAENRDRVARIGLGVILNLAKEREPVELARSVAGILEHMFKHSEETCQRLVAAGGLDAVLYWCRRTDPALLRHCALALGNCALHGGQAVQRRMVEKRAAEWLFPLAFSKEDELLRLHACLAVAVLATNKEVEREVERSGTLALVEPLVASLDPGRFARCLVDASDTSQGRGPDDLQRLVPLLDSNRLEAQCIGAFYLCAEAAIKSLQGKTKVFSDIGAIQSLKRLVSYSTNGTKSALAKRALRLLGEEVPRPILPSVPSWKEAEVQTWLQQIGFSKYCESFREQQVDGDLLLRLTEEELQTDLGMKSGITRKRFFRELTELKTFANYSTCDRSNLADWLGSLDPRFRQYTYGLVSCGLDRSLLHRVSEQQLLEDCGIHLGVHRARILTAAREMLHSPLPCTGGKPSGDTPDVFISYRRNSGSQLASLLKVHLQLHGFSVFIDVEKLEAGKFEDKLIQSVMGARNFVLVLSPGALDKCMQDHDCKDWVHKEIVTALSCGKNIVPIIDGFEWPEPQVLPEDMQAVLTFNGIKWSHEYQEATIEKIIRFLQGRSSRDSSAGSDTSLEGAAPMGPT
The assay can be described thus: SARM1 (50-724) enzymatic assay (LC-MS/MS). It is filed as biochemical. Conditions: Purified SARM1 (50-724) 2 nM, NMN as activator, NAD+ as substrate, 1 h at room temperature, read-out: IC50 (SARM1 inhibitory activity). The procedure: An enzymatic assay was performed in a 384-well plate using Dulbecco's phosphate-buffered saline (PBS) as the reaction buffer. Purified SARM1 (50-724) with a final concentration of 2 nM was pre-incubated with a test compound at […] final assay concentration for 15 min at room temperature. The reaction was initiated by adding a mixture of […] nicotinamide mononucleotide (NMN) as activator and […] NAD^+ as substrate. After 1 h of incubation at room temperature, the reaction was terminated with 10 times volume of 70% acetonitrile, and then centrifuged at 3800 rpm for 10 min. The samples were analyzed using LC-MS/MS after diluted to a proper concentration by 10 mM ammonium acetate (pH 9.75).
In Table 2, activity is provided as follows: A: IC50≤100 nM; B: 100 nM<IC50≤500 nM; C: 500 nM<IC50≤1000 nM; D: IC50>1000 nM.
As to `FC(F)(F)c1ccc2[nH]c(-c3nncn3-c3cc4nccn4cc3C(F)(F)F)nc2c1` [Compound 236, 5-(trifluoromethyl)-2-(4-(6-(trifluoromethyl)imidazo[1,2-a]pyridin-7-yl)-4H-1,2,4-triazol-3-yl)-1H-benzo[d]imidazole], the IC50 was ≤ 100 nM.

Take `Cc1ccc2[nH]c(-c3cc(C#N)cn3C3CCCC3)nc2c1` [Compound 18, 1-cyclopentyl-5-(5-methyl-1H-benzo[d]imidazol-2-yl)-1H-pyrrole-3-carbonitrile]: the IC50 is 100 to 500 nM.

`C=Cc1ccc2[nH]c(-c3nncn3-c3cnccc3C(F)(F)F)nc2c1` [Compound 276, 2-(4-(4-(trifluoromethyl)pyridin-3-yl)-4H-1,2,4-triazol-3-yl)-5-vinyl-1H-benzo[d]imidazole]: the IC50 is ≤ 100 nM.

Take `Cc1ccc2[nH]c(-c3cnccc3-c3cccc(Cl)c3Cl)nc2c1` [Example 23]: the IC50 is ≤ 100 nM.

Regarding `CC(c1cc(F)c2[nH]c(-c3nncn3-c3cnccc3C(F)(F)F)nc2c1)c1ncco1` (stereo not drawn) [Compound 435, 2-(1-(7-fluoro-2-(4-(4-(trifluoromethyl)pyridin-3-yl)-4H-1,2,4-triazol-3-yl)-1H-benzo[d]imidazol-5-yl)ethyl)oxazole], the IC50 is ≤ 100 nM.

As to `Fc1cc(C2CC2)cc2nc(-c3nnccc3-c3cnccc3C(F)(F)F)[nH]c12` [Compound 420, 6-cyclopropyl-4-fluoro-2-(4-(4-(trifluoromethyl)pyridin-3-yl)pyridazin-3-yl)-1H-benzo[d]imidazole], the IC50 is ≤ 100 nM.

As for `Fc1ccc(-n2cnnc2-c2nc3cc(C(F)(F)F)cnc3[nH]2)c(Cl)c1F` [Compound 170, 2-(4-(2-chloro-3,4-difluorophenyl)-4H-1,2,4-triazol-3-yl)-6-(trifluoromethyl)-3H-imidazo[4,5-b]pyridine], the IC50 was ≤ 100 nM.

With `Fc1cccc(-n2cnnc2-c2nc3cc(C(F)(F)F)ccc3[nH]2)c1F` [Example 84, 2-(4-(2,3-difluorophenyl)-4H-1,2,4-triazol-3-yl)-5-(trifluoromethyl)-1H-benzo[d]imidazole], the IC50 is ≤ 100 nM.

Take `Cc1cnn(-c2cc(F)c3[nH]c(-c4nncn4-c4cnccc4C(F)(F)F)nc3c2)c1` [Compound 400, 7-fluoro-5-(4-methyl-1H-pyrazol-1-yl)-2-(4-(4-(trifluoromethyl)pyridin-3-yl)-4H-1,2,4-triazol-3-yl)-1H-benzo[d]imidazole]: the half-inhibitory concentration (IC50) was ≤ 100 nM.

For the molecule `CS(=N)(=O)Cc1nnc(-c2nc3cc(Cl)cc(F)c3[nH]2)n1-c1cccc(F)c1Cl` (stereo not drawn) [Compound 192, ((4-(2-chloro-3-fluorophenyl)-5-(5-chloro-7-fluoro-1H-benzo[d]imidazol-2-yl)-4H-1,2,4-triazol-3-yl)methyl)(imino)(methyl)-16-sulfanone], the IC50 is ≤ 100 nM.

Take `CC(Oc1cc(F)c2[nH]c(-c3nncn3-c3cnccc3C(F)(F)F)nc2c1)C(F)(F)F` (stereo not drawn) [Compound 355, 7-fluoro-2-(4-(4-(trifluoromethyl)pyridin-3-yl)-4H-1,2,4-triazol-3-yl)-5-((1,1,1-trifluoropropan-2-yl)oxy)-1H-benzo[d]imidazole]: the IC50 was ≤ 100 nM.

Regarding `FC(F)(F)c1ccc2[nH]c(-c3nncn3-c3cnccc3C(F)(F)F)cc2n1` [Compound 292, 5-(trifluoromethyl)-2-(4-(4-(trifluoromethyl)pyridin-3-yl)-4H-1,2,4-triazol-3-yl)-1H-pyrrolo[3,2-b]pyridine], the IC50 was ≤ 100 nM.

As to `FC(F)(F)c1ccc2[nH]c(-c3ccnn3-c3cnccc3C(F)(F)F)nc2c1` [Compound 449, 5-(trifluoromethyl)-2-(1-(4-(trifluoromethyl)pyridin-3-yl)-1H-pyrazol-5-yl)-1H-benzo[d]imidazole], the IC50 was ≤ 100 nM.

As for `FC(F)(F)c1ccc2[nH]c(-c3cnncc3-c3cccc(Cl)c3Cl)nc2c1` [Example 44], the IC50 lay in the range of 100 to 500 nM.

In the case of `CNc1ccc(Cl)c(-n2cnnc2-c2nc3cc(C(F)(F)F)ccc3[nH]2)n1` [Compound 175, 5-Chloro-N-methyl-6-(3-(5-(trifluoromethyl)-1H-benzo[d]imidazol-2-yl)-4H-1,2,4-triazol-4-yl)pyridin-2-amine], the IC50 was ≤ 100 nM.

On to `FC(F)(F)Oc1cnc(C2CCO2)cc1-n1cnnc1-c1nc2cc(C(F)(F)F)ccc2[nH]1` (stereo not drawn) [Compound 294, 2-(4-(2-(oxetan-2-yl)-5-(trifluoromethoxy)pyridin-4-yl)-4H-1,2,4-triazol-3-yl)-5-(trifluoromethyl)-1H-benzo[d]imidazole], for which the IC50 was ≤ 100 nM.

As for `FC(F)(F)c1ccc2[nH]c(-c3nncn3-c3nsc(Cl)c3Cl)nc2c1` [Example 106], the IC50 was ≤ 100 nM.

Regarding `CCOC(=O)/C=C/c1cccc2[nH]c(-c3nncn3-c3cnccc3C(F)(F)F)nc12` [Compound 459, ethyl (E)-3-(2-(4-(4-(trifluoromethyl)pyridin-3-yl)-4H-1,2,4-triazol-3-yl)-1H-benzo[d]imidazol-4-yl)acrylate], the IC50 is 500 to 1000 nM.

Consider `Cc1cc(C(F)(F)F)c(-n2cnnc2-c2nc3cc(C(F)(F)F)ccc3[nH]2)nn1` [Compound 391, 2-(4-(6-methyl-4-(trifluoromethyl)pyridazin-3-yl)-4H-1,2,4-triazol-3-yl)-5-(trifluoromethyl)-1H-benzo[d]imidazole], for which the IC50 lay within 100 to 500 nM.

As to `FC(F)(F)c1ccc2[nH]c(-c3n[nH]cc3-c3cccc(Cl)c3Cl)nc2c1` [Example 43], the IC50 was 500 to 1000 nM.

As for `CS(=O)(=O)Cc1cccc(OC(F)(F)F)c1-n1cnnc1-c1nc2cc(C(F)(F)F)ccc2[nH]1` [Compound 289, 2-(4-(2-((methylsulfonyl)methyl)-6-(trifluoromethoxy)phenyl)-4H-1,2,4-triazol-3-yl)-5-(trifluoromethyl)-1H-benzo[d]imidazole], the IC50 was ≤ 100 nM.

As to `Cc1ccc2[nH]c(-n3c(-c4cccc(Cl)c4Cl)n[nH]c3=O)nc2c1` [Compound 31, 5-(2,3-dichlorophenyl)-4-(5-methyl-1H-benzo[d]imidazol-2-yl)-2,4-dihydro-3H-1,2,4-triazol-3-one], the IC50 was > 1000 nM.

As to `FC(F)(F)c1ccc2[nH]c(-c3nccn3-c3cccc(Cl)c3Cl)nc2c1` [Example 57], the IC50 lay within 100 to 500 nM.

Turning to `CC1(c2cc(F)c3[nH]c(-c4nncn4-c4cnccc4C(F)(F)F)nc3c2)COC1` [Compound 290, 7-fluoro-5-(3-methyloxetan-3-yl)-2-(4-(4-(trifluoromethyl)pyridin-3-yl)-4H-1,2,4-triazol-3-yl)-1H-benzo[d]imidazole], the IC50 is ≤ 100 nM.

Take `CC(C)(N)c1ccc2[nH]c(-c3nncn3-c3cnccc3C(F)(F)F)nc2c1` [Compound 448, 2-[2-[4-[4-(trifluoromethyl)-3-pyridyl]-1,2,4-triazol-3-yl]-1H-benzimidazol-5-yl]propan-2-amine]: the IC50 is 100 to 500 nM.

Consider `Oc1cc(F)c(Cl)c(-n2cnnc2-c2nc3cc(C(F)(F)F)ccc3[nH]2)c1` [Compound 207, 4-chloro-3-fluoro-5-(3-(5-(trifluoromethyl)-1H-benzo[d]imidazol-2-yl)-4H-1,2,4-triazol-4-yl)phenol], for which the IC50 is ≤ 100 nM.

For `[2H]C([2H])([2H])N(c1cc(F)c2[nH]c(-c3nncn3-c3cnccc3C(F)(F)F)nc2c1)C([2H])([2H])[2H]` [Compound 403, 7-fluoro-N,N-bis(methyl-d3)-2-(4-(4-(trifluoromethyl)pyridin-3-yl)-4H-1,2,4-triazol-3-yl)-1H-benzo[d]imidazol-5-amine], the IC50 is ≤ 100 nM.

With `Fc1cc(C2CC2C(F)F)cc2nc(-c3nncn3-c3cnccc3C(F)(F)F)[nH]c12` (stereo not drawn) [Compound 339, 5-(2-(difluoromethyl)cyclopropyl)-7-fluoro-2-(4-(4-(trifluoromethyl)pyridin-3-yl)-4H-1,2,4-triazol-3-yl)-1H-benzo[d]imidazole], the IC50 was ≤ 100 nM.

For the molecule `OCCOc1cc(-n2cnnc2-c2nc3cc(C(F)(F)F)ccc3[nH]2)c(OC(F)(F)F)cn1` [Compound 241, 2-((5-(trifluoromethoxy)-4-(3-(5-(trifluoromethyl)-1H-benzo[d]imidazol-2-yl)-4H-1,2,4-triazol-4-yl)pyridin-2-yl)oxy)ethan-1-ol], the IC50 was ≤ 100 nM.

In the case of `CS(=O)(=O)Cc1nnc(-c2nc3cc(C4CC4)cc(F)c3[nH]2)n1-c1cnccc1C(F)(F)F` [Compound 283, 5-cyclopropyl-7-fluoro-2-(5-((methylsulfonyl)methyl)-4-(4-(trifluoromethyl)pyridin-3-yl)-4H-1,2,4-triazol-3-yl)-1H-benzo[d]imidazole], the IC50 is ≤ 100 nM.
